Assay results taken from ChEMBL document CHEMBL4177573 (Bioorg Med Chem, 2017).
Square brackets hold non-standard residues; d marks the D form. Peptide text beside a SMILES is read from it. 4Pal = N[C@@H](Cc1ccncc1)C(=O)O; Cha = N[C@@H](CC1CCCCC1)C(=O)O; Aib = CC(C)(N)C(=O)O

Assays:
Mus musculus [1] = assay: Anorectic activity in C57BL/6J mouse assessed as inhibition of food intake at 0.03 mg/kg/day, sc for 3 days dosed as continuous administration by infusion using osmotic pump; assay type: functional; settings: 72 h
[2] = target: T1, Neuropeptide Y receptor type 2 (Homo sapiens, UniProt P49146); assay: Displacement of [125I]-PYY from human neuropeptide Y2 receptor expressed in CHO cell membranes incubated for 60 mins by TopCount based method
T1 sequence (P49146 whole entry): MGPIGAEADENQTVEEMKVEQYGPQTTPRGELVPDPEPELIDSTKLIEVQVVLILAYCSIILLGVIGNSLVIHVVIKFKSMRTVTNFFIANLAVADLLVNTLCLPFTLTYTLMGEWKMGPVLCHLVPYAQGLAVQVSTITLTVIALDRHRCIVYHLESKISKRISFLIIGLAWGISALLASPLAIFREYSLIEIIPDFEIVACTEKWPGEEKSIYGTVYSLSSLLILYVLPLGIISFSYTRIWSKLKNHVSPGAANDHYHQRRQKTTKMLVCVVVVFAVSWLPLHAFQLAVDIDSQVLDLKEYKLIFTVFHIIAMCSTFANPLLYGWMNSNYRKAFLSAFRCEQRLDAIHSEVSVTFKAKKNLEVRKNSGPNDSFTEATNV

[3] = target: T1, Neuropeptide Y receptor type 2; assay: Agonist activity at human neuropeptide Y2 receptor expressed in CHO cell membranes assessed as stimulation of [35S]GTPgammaS binding incubated for 120 mins by liquid scintillation counting method; assay type: functional
Mus musculus [4] = assay: Anorectic activity in C57BL/6J mouse assessed as inhibition of food intake at 0.1 mg/kg/day, sc for 3 days dosed as continuous administration by infusion using osmotic pump; assay type: functional; settings: 72 h
Mus musculus [5] = assay: Anorectic activity in C57BL/6J mouse assessed as inhibition of food intake at 1 mg/kg/day, sc for 3 days dosed as continuous administration by infusion using osmotic pump; assay type: functional; settings: 72 h
Mus musculus [6] = assay: Anorectic activity in C57BL/6J mouse assessed as inhibition of food intake at 0.3 mg/kg/day, sc dosed as […] and measured after 24 hrs; assay type: functional
Mus musculus [7] = assay: Anorectic activity in C57BL/6J mouse assessed as inhibition of food intake at 0.3 mg/kg/day, sc dosed as […] and measured after 12 hrs; assay type: functional
Mus musculus [8] = assay: Anorectic activity in C57BL/6J mouse assessed as inhibition of food intake at 0.3 mg/kg/day, sc for 3 days dosed as continuous administration by infusion using osmotic pump; assay type: functional; settings: 72 h
Mus musculus [9] = assay: Drug level in C57BL/6J mouse at 1 mg/kg, iv measured during 5 mins to 24 hrs by LC/MS/MS method; assay type: ADME, organism-based; settings: in vivo, read-out: Drug uptake

IC50 [2] [nM]	EC50 [3] [nM]	concentration (Mus musculus [9]) [nM]	SMILES	inhibition in vivo at 0.03 mg/kg/day (Mus musculus [1]) [%]	inhibition in vivo at 0.1 mg/kg/day (Mus musculus [4]) [%]	inhibition in vivo at 1 mg/kg/day (Mus musculus [5]) [%]	inhibition in vivo at 0.3 mg/kg/day (Mus musculus [6]) [%]	inhibition in vivo at 0.3 mg/kg/day (Mus musculus [7]) [%]	inhibition in vivo at 0.3 mg/kg/day (Mus musculus [8]) [%]
0.27	0.11	–	CC[C@@](C)(NC(=O)[C@H](CCCCN)NC(=O)[C@H](CC(N)=O)NC(=O)C(C)(C)NC(=O)[C@H](CC1CCCCC1)NC(=O)[C@H](Cc1ccncc1)NC(=O)[C@H](CCCNC(=N)N)NC(=O)[C@H]1CCCN1C(=O)[C@H](CO)NC(C)=O)C(=O)N[C@H](C(=O)N[C@@H](CCCNC(=N)N)C(=O)N[C@@H](CCC(N)=O)C(=O)N[C@@H](CCCNC(=N)N)C(=O)N[C@@H](CC1CCCCC1)C(N)=O)[C@@H](C)O	34	86	–	–	–	–
1.3	0.49	–	CC(C)C[C@H](NC(=O)[C@H](CC(N)=O)NC(=O)[C@H](CC1CCCCC1)NC(=O)[C@H](CC1CCCCC1)NC(=O)[C@H](Cc1cnc[nH]1)NC(=O)[C@H](CCCNC(=N)N)NC(=O)[C@H]1CCCN1C(=O)[C@H](CO)NC(=O)C(C)C)C(=O)NC(C)(C)C(=O)N[C@H](C(=O)N[C@@H](CCCNC(=N)N)C(=O)N[C@@H](CCC(N)=O)C(=O)N[C@@H](CCCNC(=N)N)C(=O)N[C@@H](CC1CCCCC1)C(N)=O)[C@@H](C)O	–	–	46	–	–	–
1.5	0.8	–	CC(C)C[C@H](NC(=O)[C@H](CC(N)=O)NC(=O)[C@H](CC1CCCCC1)NC(=O)[C@H](CC1CCCCC1)NC(=O)[C@H](Cc1cnc[nH]1)NC(=O)[C@H](CCCNC(=N)N)NC(=O)[C@H]1CCCN1C(=O)[C@H](CO)NC(=O)c1ccccc1)C(=O)NC(C)(C)C(=O)N[C@H](C(=O)N[C@@H](CCCNC(=N)N)C(=O)N[C@@H](CCC(N)=O)C(=O)N[C@@H](CCCNC(=N)N)C(=O)N[C@@H](CC1CCCCC1)C(N)=O)[C@@H](C)O	–	–	7	–	–	–
0.41	0.13	–	CC(=O)N[C@@H](CO)C(=O)NC(C)(C)C(=O)N[C@@H](CCCNC(=N)N)C(=O)N[C@@H](Cc1ccncc1)C(=O)N[C@@H](CC1CCCCC1)C(=O)NC(C)(C)C(=O)N[C@@H](CC(N)=O)C(=O)N[C@@H](CCCCN)C(=O)NC(C)(C)C(=O)N[C@H](C(=O)N[C@@H](CCCNC(=N)N)C(=O)N[C@@H](CCC(N)=O)C(=O)N[C@@H](CCCNC(=N)N)C(=O)N[C@@H](CC1CCCCC1)C(N)=O)[C@@H](C)O (Ac-S[Aib]R[4Pal][Cha][Aib]NK[Aib]TRQR[Cha]-NH2)	36	95	–	–	–	–
4.5	0.21	–	CC(=O)N[C@@H](CO)C(=O)N1CCC[C@@H]1C(=O)NC(C)(C)C(=O)N[C@@H](Cc1ccncc1)C(=O)N[C@@H](CC1CCCCC1)C(=O)NC(C)(C)C(=O)N[C@@H](CC(N)=O)C(=O)N[C@@H](CCCCN)C(=O)NC(C)(C)C(=O)N[C@H](C(=O)N[C@@H](CCCNC(=N)N)C(=O)N[C@@H](CCC(N)=O)C(=O)N[C@@H](CCCNC(=N)N)C(=O)N[C@@H](CC1CCCCC1)C(N)=O)[C@@H](C)O	–	50	–	–	–	–
–	–	–	CC(=O)N[C@@H](CO)C(=O)N1CCC[C@@H]1C(=O)N[C@@H](CCCNC(=N)N)C(=O)N[C@@H](Cc1cnc[nH]1)C(=O)N[C@@H](CC1CCCCC1)C(=O)N[C@@H](CC1CCCCC1)C(=O)N[C@@H](CC(N)=O)C(=O)N[C@@H](CC(C)C)C(=O)NC(C)(C)C(=O)N[C@H](C(=O)N[C@@H](CCCNC(=N)N)C(=O)N[C@@H](CCC(N)=O)C(=O)N[C@@H](CCCNC(=N)N)C(=O)N[C@@H](CC1CCCCC1)C(N)=O)[C@@H](C)O (Ac-S[dP]RH[Cha][Cha]NL[Aib]TRQR[Cha]-NH2)	–	–	33	–	–	–
0.16	0.14	–	CC[C@](C)(NC(=O)[C@H](CC1CCCCC1)NC(=O)[C@H](Cc1ccncc1)NC(=O)[C@H](CCCNC(=N)N)NC(=O)[C@H]1CCCN1C(=O)[C@H](CO)NC(C)=O)C(=O)N[C@@H](CC(N)=O)C(=O)N[C@@H](CCCCN)C(=O)NC(C)(C)C(=O)N[C@H](C(=O)N[C@@H](CCCNC(=N)N)C(=O)N[C@@H](CCC(N)=O)C(=O)N[C@@H](CCCNC(=N)N)C(=O)N[C@@H](CC1CCCCC1)C(N)=O)[C@@H](C)O	36	85	–	23	41	–
3.8	0.5	–	CC[C@@](C)(NC(=O)[C@H]1CCCN1C(=O)[C@H](CO)NC(C)=O)C(=O)N[C@@H](Cc1cnc[nH]1)C(=O)N[C@@H](CC1CCCCC1)C(=O)N[C@@H](CC1CCCCC1)C(=O)N[C@@H](CC(N)=O)C(=O)N[C@@H](CC(C)C)C(=O)NC(C)(C)C(=O)N[C@H](C(=O)N[C@@H](CCCNC(=N)N)C(=O)N[C@@H](CCC(N)=O)C(=O)N[C@@H](CCCNC(=N)N)C(=O)N[C@@H](CC1CCCCC1)C(N)=O)[C@@H](C)O	–	–	–	–	–	33
16	2	–	CC[C@](C)(NC(=O)[C@H]1CCCN1C(=O)[C@H](CO)NC(C)=O)C(=O)N[C@@H](Cc1cnc[nH]1)C(=O)N[C@@H](CC1CCCCC1)C(=O)N[C@@H](CC1CCCCC1)C(=O)N[C@@H](CC(N)=O)C(=O)N[C@@H](CC(C)C)C(=O)NC(C)(C)C(=O)N[C@H](C(=O)N[C@@H](CCCNC(=N)N)C(=O)N[C@@H](CCC(N)=O)C(=O)N[C@@H](CCCNC(=N)N)C(=O)N[C@@H](CC1CCCCC1)C(N)=O)[C@@H](C)O	–	–	–	–	–	2
2.3	0.4	–	CC(C)C[C@H](NC(=O)[C@H](CC(N)=O)NC(=O)[C@H](CC1CCCCC1)NC(=O)[C@H](CC1CCCCC1)NC(=O)[C@H](Cc1cnc[nH]1)NC(=O)[C@H](CCCNC(=N)N)NC(=O)[C@H]1CCCN1C(=O)[C@H](CO)NC(=O)CCC(=O)O)C(=O)NC(C)(C)C(=O)N[C@H](C(=O)N[C@@H](CCCNC(=N)N)C(=O)N[C@@H](CCC(N)=O)C(=O)N[C@@H](CCCNC(=N)N)C(=O)N[C@@H](CC1CCCCC1)C(N)=O)[C@@H](C)O	–	–	103	–	–	–
0.3	0.11	–	CC[C@@](C)(NC(=O)[C@H](CO)NC(C)=O)C(=O)N[C@@H](CCCNC(=N)N)C(=O)N[C@@H](Cc1ccncc1)C(=O)N[C@@H](CC1CCCCC1)C(=O)NC(C)(C)C(=O)N[C@@H](CC(N)=O)C(=O)N[C@@H](CCCCN)C(=O)NC(C)(C)C(=O)N[C@H](C(=O)N[C@@H](CCCNC(=N)N)C(=O)N[C@@H](CCC(N)=O)C(=O)N[C@@H](CCCNC(=N)N)C(=O)N[C@@H](CC1CCCCC1)C(N)=O)[C@@H](C)O	25	64	–	–	–	–
–	–	1060	CC(=O)N[C@@H](CO)C(=O)N1CCC[C@@H]1C(=O)N[C@@H](CCCNC(=N)N)C(=O)N[C@@H](Cc1ccncc1)C(=O)N[C@@H](CC1CCCCC1)C(=O)NC(C)(C)C(=O)N[C@@H](CC(N)=O)C(=O)N[C@@H](CCCCN)C(=O)NC(C)(C)C(=O)N[C@H](C(=O)N[C@@H](CCCNC(=N)N)C(=O)N[C@@H](CCC(N)=O)C(=O)N[C@@H](CCCNC(=N)N)C(=O)N[C@@H](CC1CCCCC1)C(N)=O)[C@@H](C)O	38	80	–	15	35	112
